Reference: PubChem BioAssay (NCI)
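Grown in 96-well plates, cells were treated for 48 hours with each compound at five concentrations. Insufficient inhibition: endpoint recorded as highest concentration tested. At the TGI there is no net growth.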

Assays:
Assay in all cases: NCI tumour cell line growth inhibition, 48 h
786-0 renal = test system: 786-0 renal
A498 renal = test system: A498 renal
A549 NSCLC = test system: A549 NSCLC
ACHN renal = test system: ACHN renal
BT-549 breast = test system: BT-549 breast
CAKI-1 renal = test system: CAKI-1 renal
CCRF-CEM leukemia = test system: CCRF-CEM leukemia
COLO 205 colon = test system: COLO 205 colon
DU-145 prostate = test system: DU-145 prostate
EKVX NSCLC = test system: EKVX NSCLC
HCC-2998 colon = test system: HCC-2998 colon
HCT-116 colon = test system: HCT-116 colon
HCT-15 colon = test system: HCT-15 colon
HL-60(TB) leukemia = test system: HL-60(TB) leukemia
HOP-62 NSCLC = test system: HOP-62 NSCLC
HOP-92 NSCLC = test system: HOP-92 NSCLC
HS 578T breast = test system: HS 578T breast
HT29 colon = test system: HT29 colon
IGROV1 ovarian = test system: IGROV1 ovarian
K-562 leukemia = test system: K-562 leukemia
KM12 colon = test system: KM12 colon
LOX IMVI melanoma = test system: LOX IMVI melanoma
M14 melanoma = test system: M14 melanoma
MALME-3M melanoma = test system: MALME-3M melanoma
MCF7 breast = test system: MCF7 breast
MDA-MB-231 breast = test system: MDA-MB-231 breast
MDA-MB-435 = test system: MDA-MB-435
MDA-N = test system: MDA-N
MOLT-4 leukemia = test system: MOLT-4 leukemia
NCI-H226 lung = test system: NCI-H226 lung
NCI-H23 lung = test system: NCI-H23 lung
NCI-H460 lung = test system: NCI-H460 lung
NCI-H522 lung = test system: NCI-H522 lung
NCI/ADR-RES ovarian = test system: NCI/ADR-RES ovarian
OVCAR-3 ovarian = test system: OVCAR-3 ovarian
OVCAR-4 ovarian = test system: OVCAR-4 ovarian
OVCAR-5 ovarian = test system: OVCAR-5 ovarian
OVCAR-8 ovarian = test system: OVCAR-8 ovarian
PC-3 prostate = test system: PC-3 prostate
RXF 393 renal = test system: RXF 393 renal
SF-268 CNS = test system: SF-268 CNS
SF-295 CNS = test system: SF-295 CNS
SF-539 CNS = test system: SF-539 CNS
SK-MEL-2 melanoma = test system: SK-MEL-2 melanoma
SK-MEL-28 melanoma = test system: SK-MEL-28 melanoma
SK-MEL-5 melanoma = test system: SK-MEL-5 melanoma
SK-OV-3 ovarian = test system: SK-OV-3 ovarian
SN12C renal = test system: SN12C renal
SNB-19 CNS = test system: SNB-19 CNS
SNB-75 CNS = test system: SNB-75 CNS
SW-620 colon = test system: SW-620 colon
T-47D breast = test system: T-47D breast
TK-10 renal = test system: TK-10 renal
U251 CNS = test system: U251 CNS
UACC-257 melanoma = test system: UACC-257 melanoma
UACC-62 melanoma = test system: UACC-62 melanoma
UO-31 renal = test system: UO-31 renal
RPMI-8226 leukemia = test system: RPMI-8226 leukemia

COc1cc2oc(-c3ccc4c(c3)OCO4)c(OC)c(=O)c2c(OC)c1OC
TGI (786-0 renal): > 100 µM
TGI (A498 renal): > 100 µM
TGI (A549 NSCLC): > 100 µM
TGI (ACHN renal): > 100 µM
TGI (BT-549 breast): > 100 µM
TGI (CAKI-1 renal): > 100 µM
TGI (CCRF-CEM leukemia): > 100 µM
TGI (COLO 205 colon): > 100 µM
TGI (DU-145 prostate): > 100 µM
TGI (EKVX NSCLC): > 100 µM
TGI (HCC-2998 colon): > 100 µM
TGI (HCT-116 colon): > 100 µM
TGI (HCT-15 colon): > 100 µM
TGI (HL-60(TB) leukemia): > 100 µM
TGI (HOP-62 NSCLC): 93 µM
TGI (HOP-92 NSCLC): 39.8 µM
TGI (HS 578T breast): > 100 µM
TGI (HT29 colon): > 100 µM
TGI (IGROV1 ovarian): > 100 µM
TGI (K-562 leukemia): > 100 µM
TGI (KM12 colon): > 100 µM
TGI (LOX IMVI melanoma): > 100 µM
TGI (M14 melanoma): > 100 µM
TGI (MALME-3M melanoma): > 100 µM
TGI (MCF7 breast): > 100 µM
TGI (MDA-MB-231 breast): > 100 µM
TGI (MDA-MB-435): > 100 µM
TGI (MDA-N): > 100 µM
TGI (MOLT-4 leukemia): > 100 µM
TGI (NCI-H226 lung): > 100 µM
TGI (NCI-H23 lung): > 100 µM
TGI (NCI-H460 lung): > 100 µM
TGI (NCI-H522 lung): > 100 µM
TGI (NCI/ADR-RES ovarian): > 100 µM
TGI (OVCAR-3 ovarian): > 100 µM
TGI (OVCAR-4 ovarian): > 100 µM
TGI (OVCAR-5 ovarian): > 100 µM
TGI (OVCAR-8 ovarian): > 100 µM
TGI (PC-3 prostate): > 100 µM
TGI (RXF 393 renal): > 100 µM
TGI (SF-268 CNS): 99.5 µM
TGI (SF-295 CNS): > 100 µM
TGI (SF-539 CNS): > 100 µM
TGI (SK-MEL-2 melanoma): > 100 µM
TGI (SK-MEL-28 melanoma): > 100 µM
TGI (SK-MEL-5 melanoma): > 100 µM
TGI (SK-OV-3 ovarian): > 100 µM
TGI (SN12C renal): > 100 µM
TGI (SNB-19 CNS): > 100 µM
TGI (SNB-75 CNS): 94 µM
TGI (SW-620 colon): > 100 µM
TGI (T-47D breast): > 100 µM
TGI (TK-10 renal): > 100 µM
TGI (U251 CNS): > 100 µM
TGI (UACC-257 melanoma): > 100 µM
TGI (UACC-62 melanoma): > 100 µM
TGI (UO-31 renal): > 100 µM

CC(C)(C)c1ccc2c(c1)C(=O)c1ccccc1C2=O
TGI (786-0 renal): > 100 µM
TGI (A498 renal): > 100 µM
TGI (A549 NSCLC): > 100 µM
TGI (ACHN renal): > 100 µM
TGI (BT-549 breast): > 100 µM
TGI (CAKI-1 renal): > 100 µM
TGI (CCRF-CEM leukemia): > 100 µM
TGI (COLO 205 colon): 60.3 µM
TGI (DU-145 prostate): > 100 µM
TGI (EKVX NSCLC): 75.9 µM
TGI (HCT-116 colon): > 100 µM
TGI (HCT-15 colon): > 100 µM
TGI (HL-60(TB) leukemia): > 100 µM
TGI (HOP-62 NSCLC): > 100 µM
TGI (HOP-92 NSCLC): 85 µM
TGI (HS 578T breast): > 100 µM
TGI (HT29 colon): 68.8 µM
TGI (IGROV1 ovarian): > 100 µM
TGI (K-562 leukemia): > 100 µM
TGI (KM12 colon): > 100 µM
TGI (LOX IMVI melanoma): > 100 µM
TGI (M14 melanoma): > 100 µM
TGI (MALME-3M melanoma): > 100 µM
TGI (MCF7 breast): 66.3 µM
TGI (MDA-MB-231 breast): > 100 µM
TGI (MDA-MB-435): > 100 µM
TGI (MDA-N): > 100 µM
TGI (MOLT-4 leukemia): 65.8 µM
TGI (NCI-H226 lung): 92.6 µM
TGI (NCI-H23 lung): > 100 µM
TGI (NCI-H460 lung): > 100 µM
TGI (NCI/ADR-RES ovarian): > 100 µM
TGI (OVCAR-3 ovarian): > 100 µM
TGI (OVCAR-4 ovarian): > 100 µM
TGI (OVCAR-5 ovarian): > 100 µM
TGI (OVCAR-8 ovarian): > 100 µM
TGI (PC-3 prostate): > 100 µM
TGI (RPMI-8226 leukemia): > 100 µM
TGI (RXF 393 renal): 80 µM
TGI (SF-268 CNS): > 100 µM
TGI (SF-295 CNS): > 100 µM
TGI (SF-539 CNS): > 100 µM
TGI (SK-MEL-28 melanoma): > 100 µM
TGI (SK-MEL-5 melanoma): 40.2 µM
TGI (SK-OV-3 ovarian): > 100 µM
TGI (SN12C renal): > 100 µM
TGI (SNB-19 CNS): > 100 µM
TGI (SNB-75 CNS): 87 µM
TGI (SW-620 colon): > 100 µM
TGI (T-47D breast): > 100 µM
TGI (TK-10 renal): > 100 µM
TGI (U251 CNS): > 100 µM
TGI (UACC-257 melanoma): > 100 µM
TGI (UACC-62 melanoma): > 100 µM
TGI (UO-31 renal): > 100 µM

O=S(=O)(O)c1ccc(N=Nc2ccc(N=Nc3c(O)c(S(=O)(=O)O)cc4cc(S(=O)(=O)O)ccc34)cc2)cc1
TGI (786-0 renal): > 100 µM
TGI (A549 NSCLC): > 100 µM
TGI (ACHN renal): > 100 µM
TGI (BT-549 breast): > 100 µM
TGI (CAKI-1 renal): > 100 µM
TGI (CCRF-CEM leukemia): > 100 µM
TGI (COLO 205 colon): > 100 µM
TGI (DU-145 prostate): > 100 µM
TGI (EKVX NSCLC): > 100 µM
TGI (HCC-2998 colon): > 100 µM
TGI (HCT-116 colon): > 100 µM
TGI (HCT-15 colon): > 100 µM
TGI (HL-60(TB) leukemia): > 100 µM
TGI (HOP-62 NSCLC): > 100 µM
TGI (HOP-92 NSCLC): > 100 µM
TGI (HS 578T breast): > 100 µM
TGI (HT29 colon): > 100 µM
TGI (IGROV1 ovarian): > 100 µM
TGI (K-562 leukemia): > 100 µM
TGI (KM12 colon): > 100 µM
TGI (M14 melanoma): > 100 µM
TGI (MALME-3M melanoma): > 100 µM
TGI (MCF7 breast): > 100 µM
TGI (MDA-MB-231 breast): > 100 µM
TGI (MDA-MB-435): > 100 µM
TGI (MDA-N): > 100 µM
TGI (MOLT-4 leukemia): > 100 µM
TGI (NCI-H226 lung): > 100 µM
TGI (NCI-H23 lung): > 100 µM
TGI (NCI-H460 lung): > 100 µM
TGI (NCI-H522 lung): > 100 µM
TGI (NCI/ADR-RES ovarian): > 100 µM
TGI (OVCAR-3 ovarian): > 100 µM
TGI (OVCAR-4 ovarian): > 100 µM
TGI (OVCAR-5 ovarian): > 100 µM
TGI (OVCAR-8 ovarian): > 100 µM
TGI (PC-3 prostate): > 100 µM
TGI (RPMI-8226 leukemia): > 100 µM
TGI (RXF 393 renal): > 100 µM
TGI (SF-268 CNS): > 100 µM
TGI (SF-295 CNS): > 100 µM
TGI (SF-539 CNS): > 100 µM
TGI (SK-MEL-2 melanoma): > 100 µM
TGI (SK-MEL-28 melanoma): > 100 µM
TGI (SK-MEL-5 melanoma): > 100 µM
TGI (SK-OV-3 ovarian): > 100 µM
TGI (SN12C renal): > 100 µM
TGI (SNB-19 CNS): > 100 µM
TGI (SW-620 colon): > 100 µM
TGI (T-47D breast): > 100 µM
TGI (TK-10 renal): > 100 µM
TGI (U251 CNS): > 100 µM
TGI (UACC-257 melanoma): > 100 µM
TGI (UACC-62 melanoma): > 100 µM
TGI (UO-31 renal): > 100 µM
